Patent US8927717B1, “Thiochromeno[2,3-c]quinolin-12-one derivatives, preparation method and application thereof” (National Defense Medical Center, priority 2014, dated 2015)

Key:
SF-539 = format: cell-based
TOP I (Topoisomerase I) [1] = molecular target: T1, TOP I (Topoisomerase I) (Homo sapiens, UniProt P11387); test: TOP I mediated supercoiled DNA relaxation assay; format: biochemical; details: primary assay at 25 and/or 50 μM
T1 construct: purchased TopoGEN TG2005H
T1 sequence (P11387 1-765): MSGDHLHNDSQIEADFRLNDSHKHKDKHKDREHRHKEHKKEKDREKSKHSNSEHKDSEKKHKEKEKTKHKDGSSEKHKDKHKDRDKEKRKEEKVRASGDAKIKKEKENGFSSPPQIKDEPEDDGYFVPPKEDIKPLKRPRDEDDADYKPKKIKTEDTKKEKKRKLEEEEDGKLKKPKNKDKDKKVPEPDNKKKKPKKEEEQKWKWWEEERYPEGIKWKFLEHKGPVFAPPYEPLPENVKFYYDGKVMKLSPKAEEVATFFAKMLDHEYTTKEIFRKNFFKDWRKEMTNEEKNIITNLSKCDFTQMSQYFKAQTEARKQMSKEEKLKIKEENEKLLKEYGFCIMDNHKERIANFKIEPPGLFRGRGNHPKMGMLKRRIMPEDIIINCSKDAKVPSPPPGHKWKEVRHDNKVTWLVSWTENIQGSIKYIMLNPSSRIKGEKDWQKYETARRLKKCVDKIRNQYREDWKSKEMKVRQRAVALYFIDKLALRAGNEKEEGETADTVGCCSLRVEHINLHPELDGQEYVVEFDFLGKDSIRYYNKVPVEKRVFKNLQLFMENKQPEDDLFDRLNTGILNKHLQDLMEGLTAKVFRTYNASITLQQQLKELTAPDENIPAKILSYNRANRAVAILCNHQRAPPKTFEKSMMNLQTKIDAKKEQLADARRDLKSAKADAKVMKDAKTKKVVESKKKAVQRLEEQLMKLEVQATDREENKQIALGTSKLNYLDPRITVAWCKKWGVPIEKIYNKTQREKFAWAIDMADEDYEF
Experimental: According to the cell cytotoxicity, compounds 5, 7, 8, 16, 19, N2, N7, N8, N9, N14-N19, and N25 were also selected for primary TOP I and II activities assays at 25 and/or 50 μM (FIG. 2-4).

HCT-116 = format: cell-based
TOP I (Topoisomerase I) [2] = molecular target: T1, TOP I (Topoisomerase I); test: TOP I mediated supercoiled DNA relaxation assay; format: biochemical; details: five different concentrations; TopoGEN TG2005H, TG-2000H-1
HCT-15 = format: cell-based
ACHN = format: cell-based
HOP-92 = format: cell-based; details: HOP-92, five dose
IGROV1 = format: cell-based
SR = format: cell-based
OVCAR-4 = format: cell-based
SW-620 = format: cell-based
OVCAR-3 = format: cell-based; details: Ovarian cancer; 10^−5 molar; 48 hours; SRB
MDA-MB-486 = format: cell-based
UACC-257 = format: cell-based
M14 = format: cell-based
SK-MEL-2 = format: cell-based; details: SK-Mel-2, five dose
NCI/ADR-RES = format: cell-based
SF-295 = format: cell-based
T-47D = format: cell-based
HCC-2998 = format: cell-based
SN12C = format: cell-based
[3] = molecular target: T2, TOP II (Topoisomerase II) (Homo sapiens, UniProt P11388); test: TOP II-catalyzed relaxation of plasmid DNA assay; format: biochemical
T2 construct: purchased TopoGEN TG-2000H-1
T2 sequence (P11388 whole entry): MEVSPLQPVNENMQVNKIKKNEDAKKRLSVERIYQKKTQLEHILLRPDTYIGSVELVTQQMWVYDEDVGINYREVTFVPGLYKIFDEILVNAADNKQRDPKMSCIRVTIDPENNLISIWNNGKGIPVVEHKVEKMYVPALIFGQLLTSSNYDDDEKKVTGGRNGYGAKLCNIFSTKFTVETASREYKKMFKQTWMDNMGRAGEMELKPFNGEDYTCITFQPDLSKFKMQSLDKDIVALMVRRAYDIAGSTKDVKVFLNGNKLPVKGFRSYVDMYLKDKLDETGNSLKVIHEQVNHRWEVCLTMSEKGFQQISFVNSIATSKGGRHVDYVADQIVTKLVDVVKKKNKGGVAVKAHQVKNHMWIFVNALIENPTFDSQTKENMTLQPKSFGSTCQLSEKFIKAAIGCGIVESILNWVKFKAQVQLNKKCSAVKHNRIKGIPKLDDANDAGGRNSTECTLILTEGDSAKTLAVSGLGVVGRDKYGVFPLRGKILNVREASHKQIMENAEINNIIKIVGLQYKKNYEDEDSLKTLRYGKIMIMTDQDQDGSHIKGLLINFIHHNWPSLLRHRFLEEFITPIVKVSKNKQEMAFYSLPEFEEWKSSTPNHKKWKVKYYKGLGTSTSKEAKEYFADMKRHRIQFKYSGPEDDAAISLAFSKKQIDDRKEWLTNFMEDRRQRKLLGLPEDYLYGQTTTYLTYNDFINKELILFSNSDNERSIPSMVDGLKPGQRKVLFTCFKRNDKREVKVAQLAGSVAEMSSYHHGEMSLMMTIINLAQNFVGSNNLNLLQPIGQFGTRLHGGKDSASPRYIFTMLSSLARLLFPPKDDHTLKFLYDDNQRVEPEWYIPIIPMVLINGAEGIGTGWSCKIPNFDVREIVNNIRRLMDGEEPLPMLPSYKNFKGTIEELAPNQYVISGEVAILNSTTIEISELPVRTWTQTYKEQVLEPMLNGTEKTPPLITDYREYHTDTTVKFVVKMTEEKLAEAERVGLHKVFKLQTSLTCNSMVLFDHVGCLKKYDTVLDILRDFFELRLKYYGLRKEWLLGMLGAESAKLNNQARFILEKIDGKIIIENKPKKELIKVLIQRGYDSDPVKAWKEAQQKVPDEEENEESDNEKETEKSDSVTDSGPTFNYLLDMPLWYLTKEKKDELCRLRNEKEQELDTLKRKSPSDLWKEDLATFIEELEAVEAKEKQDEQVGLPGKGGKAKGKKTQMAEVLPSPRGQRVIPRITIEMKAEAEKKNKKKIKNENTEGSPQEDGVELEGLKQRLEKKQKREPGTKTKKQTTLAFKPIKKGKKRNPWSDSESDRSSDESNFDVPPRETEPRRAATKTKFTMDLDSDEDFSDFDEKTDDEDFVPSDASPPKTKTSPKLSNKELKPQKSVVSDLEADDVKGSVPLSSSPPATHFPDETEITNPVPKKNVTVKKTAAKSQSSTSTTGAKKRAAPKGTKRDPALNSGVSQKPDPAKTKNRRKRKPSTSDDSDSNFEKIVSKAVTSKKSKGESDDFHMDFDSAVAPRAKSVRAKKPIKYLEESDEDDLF
Experimental: We also performed TOP II-catalyzed relaxation of plasmid DNA assays (FIG. 5-7) to evaluate if compounds could inhibit TOP II. […] The IC50 value of compounds 7, N7, N8, N14, N15, N18, and N19 were about 10, 10, 1, 10, 5, 1, and 1 μM, respectively (detect by TopoGEN TG2005H, TG-2000H-1).

CAKI-1 = format: cell-based
[4] = CNS cancer, 10^−5 molar, 48 hours, SRB
[5] = Homo sapiens, SF-539, five dose
[6] = Colon cancer, 10^−5 molar, 48 hours, SRB
[7] = Homo sapiens, HCT-116, five dose
[8] = Homo sapiens, HCT-15, five dose
[9] = Renal cancer, 10^−5 molar, 48 hours, SRB
[10] = Ovarian cancer, 10^−5 molar, 48 hours, SRB
[11] = Homo sapiens, SW-620, five dose
[12] = Breast cancer, 10^−5 molar, 48 hours, SRB
[13] = Melanoma, 10^−5 molar, 48 hours, SRB
[14] = Homo sapiens, HCC-2998, five dose

NCCNc1nc2ccccc2c2c(=O)c3cc(Cl)ccc3sc12 [Compound N14, 6-((2-Aminoethyl)amino)-10-chloro-12H-thiochromeno[2,3-c]quinolin-12-one]
Growth percent SF-539 (SF-539; [4]): 2.13% | GI50 (SF-539; [5]): 1570 nM | LC50 (SF-539; [5]): 5520 nM | TGI (SF-539; SF-539, five dose): 2950 nM | inhibitory effect in TOP I activity assay compared with CPT (TOP I (Topoisomerase I) [1]): more potent inhibitory effects than CPT | Growth percent HCT-116 (HCT-116; [6]): −48.19% | TGI (HCT-116; HCT-116, five dose): 2990 nM | GI50 (HCT-116; [7]): 1630 nM | LC50 (concentration killing 50% of cells) (HCT-116; [7]): 5470 nM | IC50 (TOP I (Topoisomerase I) [2]): ~1000 nM | Growth percent HCT-15 (HCT-15; [6]): −45.92% | TGI (HCT-15; HCT-15, five dose): 3120 nM | GI50 (HCT-15; [8]): 1580 nM | LC50 (HCT-15; [8]): 6160 nM | TGI (ACHN; ACHN, five dose): 2760 nM | GI50 (ACHN; Homo sapiens, ACHN, five dose): 1440 nM | CC50 (ACHN; Homo sapiens, ACHN, five dose, read-out: LC50 (the source's name)): 5290 nM | Growth percent ACHN (ACHN; [9]): −92.31% | TGI (HOP-92): 3050 nM | GI50 (HOP-92; Homo sapiens): 1030 nM | LC50 (HOP-92; Homo sapiens): 9040 nM | GI50 (IGROV1; Homo sapiens, IGROV-1, IGROV1, five dose): 1610 nM | TGI (IGROV1; IGROV1, five dose): 3450 nM | Growth percent IGROV1 (IGROV1; [10]): −77.31% | GI50 (SR; Homo sapiens, SR, five dose): 1810 nM | LC50 (50% lethal concentration) (SR; Homo sapiens, SR, five dose): > 100000 nM | Growth percent SR (SR; Leukemia, 10^−5 molar, 48 hours, SRB): −51.67% | TGI (SR; SR, five dose): 4300 nM | GI50 (OVCAR-4; Homo sapiens, OVCAR-4, five dose): 1520 nM | CC50 (OVCAR-4; Homo sapiens, OVCAR-4, five dose, read-out: LC50 (the source's name)): 6540 nM | TGI (OVCAR-4; OVCAR-4, five dose): 3150 nM | Growth percent OVCAR-4 (OVCAR-4; [10]): −20.15% | Growth percent SW-620 (SW-620; [6]): −66.88% | GI50 (SW-620; [11]): 1670 nM | LC50 (SW-620; [11]): 7020 nM | TGI (SW-620; SW-620, five dose): 3420 nM | Growth percent OVCAR-3 (OVCAR-3): −84.15% | GI50 (MDA-MB-486; 60 cell, MDA-MB-486, five dose): 1270 nM | CC50 (MDA-MB-486; 60 cell, MDA-MB-486, five dose, read-out: LC50 (the source's name)): 6150 nM | Growth percent MDA-MB-486 (MDA-MB-486; [12]): −62.13% | TGI (MDA-MB-486; MDA-MB-486, five dose): 2800 nM | GI50 (UACC-257; Homo sapiens, UACC-257, five dose): 1900 nM | CC50 (UACC-257; Homo sapiens, UACC-257, five dose, read-out: LC50 (the source's name)): 6700 nM | Growth percent UACC-257 (UACC-257; [13]): −67.35% | TGI (UACC-257; UACC-257, five dose): 3560 nM | GI50 (M14; Homo sapiens, M14, five dose): 1830 nM | LC50 (M14; Homo sapiens, M14, five dose): 6140 nM | TGI (M14; M14, five dose): 3350 nM | Growth percent M14 (M14; [13]): −55.62% | GI50 (SK-MEL-2; Homo sapiens): 1980 nM | LC50 (SK-MEL-2; Homo sapiens): 7870 nM | TGI (SK-MEL-2): 3950 nM | GI50 (NCI/ADR-RES; Homo sapiens, NCI/ADR-RES, five dose): 1880 nM | TGI (NCI/ADR-RES; NCI/ADR-RES, five dose): 3670 nM | Growth percent NCI/ADR-RES (NCI/ADR-RES; [10]): −42.68% | Growth percent SF-295 (SF-295; [4]): −74.29% | GI50 (SF-295; Homo sapiens, SF-295, five dose): 1790 nM | TGI (SF-295; SF-295, five dose): 3630 nM | Growth percent T-47D (T-47D; [12]): −82.45% | GI50 (T-47D; Homo sapiens, T47D, T-47D, five dose): 1560 nM | TGI (T-47D; T-47D, five dose): 3370 nM | Growth percent HCC-2998 (HCC-2998; [6]): −90.43% | TGI (HCC-2998; HCC-2998, five dose): 4060 nM | GI50 (HCC-2998; [14]): 2030 nM | LC50 (HCC-2998; [14]): 8140 nM | GI50 (SN12C; Homo sapiens, SN12C, five dose): 1450 nM | Growth percent SN12C (SN12C; [9]): −93.98% | TGI (SN12C; SN12C, five dose): 3020 nM | IC50 ([3]; five different concentrations, TopoGEN TG2005H, TG-2000H-1, read-out: IC50 value, TOP II mediated supercoiled DNA relaxation): ~10000 nM | inhibitory effect in TOP II relaxation assay compared with VP-16 ([3]; primary assay at 25 and/or 50 μM): more potent inhibitory effects than the positive agent VP-16 | TGI (CAKI-1; CAKI-1, five dose): 3270 nM | GI50 (CAKI-1; Homo sapiens, CAKI-1, five dose): 1560 nM | Growth percent CAKI-1 (CAKI-1; [9]): −75.30%
